Assay results: US9211310B2, “Use of a Chinese medicine composition in preparing medicaments for treating secondary prevention of myocardial infarction” (TASLY PHARMACEUTICAL GROUP CO., LTD, priority 2010, dated 2015)

System: patients after acute myocardial infarction
Assay: Life quality, Seattle Angina Questionnaire (SAQ), same clinical trial
Type: in vivo, human
Conditions: Follow-up
Source text: 3508 patients who were in accordance with the diagnostic standards of AMI for 28 days to 2 years and differentiated as Qi deficiency and blood stagnation syndrome by TCM were studied. 0.5 g Chinese medicine composition prepared by the method of EXAMPLE 1 (Coded as QSYQ) was administrated half an hour after meal, 3 times per day.
There were 19 questions in the Seattle angina questionnaire (SAQ), including 5 parts: physical limitation (PL), anginal stability (AS), anginal frequency (AF), treatment satisfaction (TS) and disease perception (DP). After being given necessary explanation by doctors, the questions were answered independently by patients.
They included the overall survival time, angina pectoris score, TCM symptom score and life quality score, where angina pectoris score, TCM symptom score and life quality score were evaluated at randomization, in 1st, 3rd, 6th, 9th, 12th month after treatment and 18th month after follow-up.
All evaluation results of SAQ were described during the period of observation, and Wilcoxon rank sum test was used for inter-group comparison.
The evaluation results in the SAQ were depicted in different observations, and inter-group comparison was tested by Wilcoxon Rank-sum test.

[1] = FAS, second line headed Not limited (r60)

CC(=O)Oc1ccccc1C(=O)O [Control group, aspirine]
SAQ 7th question, Mostly satisfied: number of patients (FAS): 908
SAQ 7th question, Partly satisfied: % of patients (FAS): (6.68%)
SAQ 7th question, Partly satisfied: number of patients (FAS): 97
SAQ Question 1-1 Mildly limited, number of patients (FAS): 6
SAQ Question 1-1 Mildly limited, percent of patients (FAS): (0.42%)
SAQ Question 1-1 Moderately limited, number of patients (FAS): 1
SAQ Question 1-1 Moderately limited, percent of patients (FAS): (0.07%)
SAQ Question 1-1 Not limited, number of patients (FAS): 1386
SAQ Question 1-1 Not limited, percent of patients (FAS): (95.98%)
SAQ Question 1-1 Other reasons, number of patients (FAS): 5
SAQ Question 1-1 Other reasons, percent of patients (FAS): (0.35%)
SAQ Question 1-1 Severely limited, number of patients (FAS): 1
SAQ Question 1-1 Severely limited, percent of patients (FAS): (0.07%)
SAQ Question 1-1 Slightly limited, number of patients (FAS): 45
SAQ Question 1-1 Slightly limited, percent of patients (FAS): (3.12%)
SAQ Question 1-2 Mildly limited, number of patients (FAS): 8
SAQ Question 1-2 Mildly limited, percent of patients (FAS): (0.55%)
SAQ Question 1-2 Moderately limited, number of patients (FAS): 0
SAQ Question 1-2 Moderately limited, percent of patients (FAS): (0.00%)
SAQ Question 1-2 Not limited, number of patients (FAS): 1370
SAQ Question 1-2 Not limited, percent of patients (FAS): (94.88%)
SAQ Question 1-2 Severely limited, number of patients (FAS): 2
SAQ Question 1-2 Severely limited, percent of patients (FAS): (0.14%)
SAQ Question 1-2 Slightly limited, number of patients (FAS): 57
SAQ Question 1-2 Slightly limited, percent of patients (FAS): (3.95%)
SAQ Question 1-6: Mildly limited, patients (%) (FAS): (11.47%)
SAQ Question 1-6: Moderately limited, patients (%) (FAS): (9.24%)
SAQ Question 1-6: Not limited, patients (%) (FAS): (42.11%)
SAQ Question 1-6: Other reasons, patients (%) (FAS): (0.83%)
SAQ Question 1-6: Severely limited, patients (%) (FAS): (2.22%)
SAQ Question 1-6: Slightly limited, patients (%) (FAS): (34.12%)
SAQ Question 1-7: Mildly limited, patients (%) (FAS): (22.01%)
SAQ Question 1-7: Moderately limited, patients (%) (FAS): (6.75%)
SAQ Question 1-7: Not limited, patients (%) (FAS): (22.08%)
SAQ Question 1-7: Other reasons, patients (%) (FAS): (2.53%)
SAQ Question 1-7: Severely limited, patients (%) (FAS): (11.67%)
SAQ Question 1-7: Slightly limited, patients (%) (FAS): (34.95%)
SAQ Question 1-8: Mildly limited, patients (%) (FAS): (25.02%)
SAQ Question 1-8: Moderately limited, patients (%) (FAS): (11.91%)
SAQ Question 1-8: Not limited, patients (%) (FAS): (15.02%)
SAQ Question 1-8: Other reasons, patients (%) (FAS): (3.19%)
SAQ Question 1-8: Severely limited, patients (%) (FAS): (14.74%)
SAQ Question 1-8: Slightly limited, patients (%) (FAS): (30.12%)
SAQ Question 1-2 Not limited, number of patients [1]: 7
SAQ Question 1-2 Not limited, percent of patients [1]: (0.48%)
SAQ 2nd question: Clearly increased, % of cases (FAS): (0.21%)
SAQ 2nd question: Clearly increased, cases (FAS): 3
SAQ 2nd question: Clearly reduced, % of cases (FAS): (27.82%)
SAQ 2nd question: Clearly reduced, cases (FAS): 402
SAQ 2nd question: Same, % of cases (FAS): (39.24%)
SAQ 2nd question: Same, cases (FAS): 567
SAQ 2nd question: Slightly increased, % of cases (FAS): (7.40%)
SAQ 2nd question: Slightly increased, cases (FAS): 107
SAQ 2nd question: Slightly reduced, % of cases (FAS): (25.33%)
SAQ 2nd question: Slightly reduced, cases (FAS): 366
SAQ 3rd question: 1-2 times per week, % of cases (FAS): (25.33%)
SAQ 3rd question: 1-2 times per week, cases (FAS): 366
SAQ 3rd question: 1-3 times per day, % of cases (FAS): (7.40%)
SAQ 3rd question: 1-3 times per day, cases (FAS): 107
SAQ 3rd question: <1 time per week, % of cases (FAS): (27.82%)
SAQ 3rd question: <1 time per week, cases (FAS): 402
SAQ 3rd question: No onset, % of cases (FAS): (0.00%)
SAQ 3rd question: No onset, cases (FAS): 0
SAQ 3rd question: ≧3 times per week, % of cases (FAS): (39.24%)
SAQ 3rd question: ≧3 times per week, cases (FAS): 567
SAQ 3rd question: ≧4 times per day, % of cases (FAS): (0.21%)
SAQ 3rd question: ≧4 times per day, cases (FAS): 3
SAQ Question 1-3: Mildly limited, number of patients (FAS): 30
SAQ Question 1-3: Mildly limited, percent of patients (FAS): (2.08%)
SAQ Question 1-3: Moderately limited, number of patients (FAS): 6
SAQ Question 1-3: Moderately limited, percent of patients (FAS): (0.42%)
SAQ Question 1-3: Not limited, number of patients (FAS): 1206
SAQ Question 1-3: Not limited, percent of patients (FAS): (83.58%)
SAQ Question 1-3: Other reasons, number of patients (FAS): 9
SAQ Question 1-3: Other reasons, percent of patients (FAS): (0.62%)
SAQ Question 1-3: Severely limited, number of patients (FAS): 2
SAQ Question 1-3: Severely limited, percent of patients (FAS): (0.14%)
SAQ Question 1-3: Slightly limited, number of patients (FAS): 190
SAQ Question 1-3: Slightly limited, percent of patients (FAS): (13.17%)
SAQ Question 1-4: Mildly limited, number of patients (FAS): 177
SAQ Question 1-4: Mildly limited, percent of patients (FAS): (12.28%)
SAQ Question 1-4: Moderately limited, number of patients (FAS): 38
SAQ Question 1-4: Moderately limited, percent of patients (FAS): (2.64%)
SAQ Question 1-4: Not limited, number of patients (FAS): 775
SAQ Question 1-4: Not limited, percent of patients (FAS): (53.78%)
SAQ Question 1-4: Other reasons, number of patients (FAS): 10
SAQ Question 1-4: Other reasons, percent of patients (FAS): (0.69%)
SAQ Question 1-4: Severely limited, number of patients (FAS): 5
SAQ Question 1-4: Severely limited, percent of patients (FAS): (0.35%)
SAQ Question 1-4: Slightly limited, number of patients (FAS): 436
SAQ Question 1-4: Slightly limited, percent of patients (FAS): (30.26%)
SAQ Question 1-5: Mildly limited, number of patients (FAS): 189
SAQ Question 1-5: Mildly limited, percent of patients (FAS): (13.12%)
SAQ Question 1-5: Moderately limited, number of patients (FAS): 57
SAQ Question 1-5: Moderately limited, percent of patients (FAS): (3.96%)
SAQ Question 1-5: Not limited, number of patients (FAS): 783
SAQ Question 1-5: Not limited, percent of patients (FAS): (54.34%)
SAQ Question 1-5: Other reasons, number of patients (FAS): 8
SAQ Question 1-5: Other reasons, percent of patients (FAS): (0.56%)
SAQ Question 1-5: Severely limited, number of patients (FAS): 9
SAQ Question 1-5: Severely limited, percent of patients (FAS): (0.62%)
SAQ Question 1-5: Slightly limited, number of patients (FAS): 395
SAQ Question 1-5: Slightly limited, percent of patients (FAS): (27.41%)
SAQ Question 1-9: Mildly limited, % of cases (FAS): (20.40%)
SAQ Question 1-9: Mildly limited, cases (FAS): 285
SAQ Question 1-9: Moderately limited, % of cases (FAS): (21.19%)
SAQ Question 1-9: Moderately limited, cases (FAS): 296
SAQ Question 1-9: Not limited, % of cases (FAS): (6.08%)
SAQ Question 1-9: Not limited, cases (FAS): 85
SAQ Question 1-9: Other reasons, % of cases (FAS): (4.65%)
SAQ Question 1-9: Other reasons, cases (FAS): 65
SAQ Question 1-9: Severely-limited, % of cases (FAS): (27.13%)
SAQ Question 1-9: Severely-limited, cases (FAS): 379
SAQ Question 1-9: Slightly limited, % of cases (FAS): (20.54%)
SAQ Question 1-9: Slightly limited, cases (FAS): 287
SAQ 2nd question: Clearly increased, % of cases (PP): (0.21%)
SAQ 2nd question: Clearly increased, cases (PP): 3
SAQ 2nd question: Clearly reduced, % of cases (PP): (27.66%)
SAQ 2nd question: Clearly reduced, cases (PP): 390
SAQ 2nd question: Same, % of cases (PP): (39.15%)
SAQ 2nd question: Same, cases (PP): 552
SAQ 2nd question: Slightly increased, % of cases (PP): (7.38%)
SAQ 2nd question: Slightly increased, cases (PP): 104
SAQ 2nd question: Slightly reduced, % of cases (PP): (25.60%)
SAQ 2nd question: Slightly reduced, cases (PP): 361
SAQ 3rd question: 1-2 times per week, % of cases (PP): (25.60%)
SAQ 3rd question: 1-2 times per week, cases (PP): 361
SAQ 3rd question: 1-3 times per day, % of cases (PP): (7.38%)
SAQ 3rd question: 1-3 times per day, cases (PP): 104
SAQ 3rd question: <1 time per week, % of cases (PP): (27.66%)
SAQ 3rd question: <1 time per week, cases (PP): 390
SAQ 3rd question: No onset, % of cases (PP): (0.00%)
SAQ 3rd question: No onset, cases (PP): 0
SAQ 3rd question: ≧3 times per week, % of cases (PP): (39.15%)
SAQ 3rd question: ≧3 times per week, cases (PP): 552
SAQ 3rd question: ≧4 times per day, % of cases (PP): (0.21%)
SAQ 3rd question: ≧4 times per day, cases (PP): 3
SAQ Question 1-3: Mildly limited, number of patients (PP): 30
SAQ Question 1-3: Mildly limited, percent of patients (PP): (2.13%)
SAQ Question 1-3: Moderately limited, number of patients (PP): 6
SAQ Question 1-3: Moderately limited, percent of patients (PP): (0.43%)
SAQ Question 1-3: Not limited, number of patients (PP): 1179
SAQ Question 1-3: Not limited, percent of patients (PP): (83.74%)
SAQ Question 1-3: Other reasons, number of patients (PP): 9
SAQ Question 1-3: Other reasons, percent of patients (PP): (0.64%)
SAQ Question 1-3: Severely limited, number of patients (PP): 2
SAQ Question 1-3: Severely limited, percent of patients (PP): (0.14%)
SAQ Question 1-3: Slightly limited, number of patients (PP): 182
SAQ Question 1-3: Slightly limited, percent of patients (PP): (12.93%)
SAQ Question 1-4: Mildly limited, number of patients (PP): 172
SAQ Question 1-4: Mildly limited, percent of patients (PP): (12.23%)
SAQ Question 1-4: Moderately limited, number of patients (PP): 37
SAQ Question 1-4: Moderately limited, percent of patients (PP): (2.63%)
SAQ Question 1-4: Not limited, number of patients (PP): 754
